# In US12655125B2 (SIRONAX LTD., priority 2020, dated 2026):
# Test system: HT-29 cells
# Test: HT29 Cells 0FBS Assay In Vitro (TNF-α/SMAC mimetic/zVAD-FMK induced necroptosis, CellTiter-Glo cell viability)
# Format: cell-based
# Details: Homo sapiens; HT-29 cells, FBS free medium, TNF-α (10 ng/ml), SMAC mimetic (6 uM), zVAD-FMK (10 μM), 20 hours; geometric mean EC50; read-out: Cell activity (EC50) of Compounds 117-281
# In short: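 Viability was measured by ATP luminescence (CellTiter-Glo) after 20 h at 37° C of compound exposure in 10-point, 1:3 dilutions. Necroptosis in FBS-free HT-29 cultures was driven by a TNF-α (10 ng/ml), SMAC mimetic (6 μM) and zVAD-FMK (10 μM) cocktail. EC50 values are geometric means from duplicate curves.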
row,SMILES,EC50 [nM]
1,"Cc1c(N)nn(C)c1-c1ncc(F)c(OC2CN(C(=O)N3N=CC[C@H]3c3cc(F)cc(F)c3)C2)n1 [compound 207, (S)-(3-((2-(3-amino-1,4-dimethyl-1H-pyrazol-5-yl)-5-fluoropyrimidin-4-yl)oxy)azetidin-1-yl)(5-(3,5-difluorophenyl)-4,5-dihydro-1H-pyrazol-1-yl)methanone]",0.1 to 100
2,"Cc1cnn(C)c1-c1cnc(F)c(OC2CN(C(=O)N3N=CC[C@H]3c3cc(F)cc(F)c3)C2)c1 [compound 208, (S)-(5-(3,5-difluorophenyl)-4,5-dihydro-1H-pyrazol-1-yl)(3-((5-(1,4-dimethyl-1H-pyrazol-5-yl)-2-fluoropyridin-3-yl)oxy)azetidin-1-yl)methanone]",0.1 to 100
3,"Cc1nn(C)c(-c2cc(OC3CN(C(=O)N4N=CC[C@H]4c4cc(F)cc(F)c4)C3)c(F)cn2)c1N [compound 209, (S)-(3-((2-(4-amino-1,3-dimethyl-1H-pyrazol-5-yl)-5-fluoropyridin-4-yl)oxy)azetidin-1-yl)(5-(3,5-difluorophenyl)-4,5-dihydro-1H-pyrazol-1-yl)methanone]",0.1 to 100
4,"Cc1nn(C)c(N)c1-c1cc(OC2CN(C(=O)N3N=CC[C@H]3c3cc(F)cc(F)c3)C2)c(F)cn1 [compound 210, (S)-(3-((2-(5-amino-1,3-dimethyl-11H-pyrazol-4-yl)-5-fluoropyridin-4-yl)oxy)azetidin-1-yl)(5-(3,5-difluorophenyl)-4,5-dihydro-1H-pyrazol-1-yl)methanone]",0.1 to 100
5,"Cc1c(CN)nn(C)c1-c1cc(OC2CN(C(=O)N3N=CC[C@H]3c3cc(F)cc(F)c3)C2)c(F)cn1 [compound 211, (S)-(3-((2-(3-(aminomethyl)-1,4-dimethyl-11H-pyrazol-5-yl)-5-fluoropyridin-4-yl)oxy)azetidin-1-yl)(5-(3,5-difluorophenyl)-4,5-dihydro-1H-pyrazol-1-yl)methanone]",0.1 to 100
6,"Cc1c(NCCO)nn(C)c1-c1cc(OC2CN(C(=O)N3N=CC[C@H]3c3cc(F)cc(F)c3)C2)c(F)cn1 [compound 212, (S)-(5-(3,5-difluorophenyl)-4,5-dihydro-1H-pyrazol-1-yl)(3-((5-fluoro-2-(3-((2-hydroxyethyl)amino)-1,4-dimethyl-1H-pyrazol-5-yl)pyridin-4-yl)oxy)azetidin-1-yl)methanone]",0.1 to 100
7,"Cc1c(N2CC(O)C2)nn(C)c1-c1cc(OC2CN(C(=O)N3N=CC[C@H]3c3cc(F)cc(F)c3)C2)c(F)cn1 [compound 213, (S)-(5-(3,5-difluorophenyl)-4,5-dihydro-1H-pyrazol-1-yl)(3-((5-fluoro-2-(3-(3-hydroxyazetidin-1-yl)-1,4-dimethyl-1H-pyrazol-5-yl)pyridin-4-yl)oxy)azetidin-1-yl)methanone]",0.1 to 100
8,"Cc1nn(-c2cc(OC3CN(C(=O)N4N=CC[C@H]4c4cc(F)cc(F)c4)C3)c(F)cn2)c(C)c1C(=O)NCCO [compound 214, (S)-1-(4-((1-(5-(3,5-difluorophenyl)-4,5-dihydro-1H-pyrazole-1-carbonyl)azetidin-3-yl)oxy)-5-fluoropyridin-2-yl)-N-(2-hydroxyethyl)-3,5-dimethyl-1H-pyrazole-4-carboxamide]",0.1 to 100
9,"Cc1c(N)nn(C)c1-c1ccc(F)c(OC2CN(C(=O)N3N=CC[C@H]3c3cc(F)cc(F)c3)C2)n1 [compound 215, (S)-(3-((6-(3-amino-1,4-dimethyl-1H-pyrazol-5-yl)-3-fluoropyridin-2-yl)oxy)azetidin-1-yl)(5-(3,5-difluorophenyl)-4,5-dihydro-1H-pyrazol-1-yl)methanone]",0.1 to 100
10,"Cc1nn(-c2cc(OC3CN(C(=O)N4N=CC[C@H]4c4cc(F)cc(F)c4)C3)c(F)cn2)c(C)c1C(=O)NC1CCOCC1 [compound 216, (S)-1-(4-((1-(5-(3,5-difluorophenyl)-4,5-dihydro-1H-pyrazole-1-carbonyl)azetidin-3-yl)oxy)-5-fluoropyridin-2-yl)-3,5-dimethyl-N-(tetrahydro-2H-pyran-4-yl)-1H-pyrazole-4-carboxamide]",0.1 to 100
